The record followed here is ChEMBL document CHEMBL1268819, “Design, synthesis, and biological evaluation of 4-(5-nitrofuran-2-yl)prop-2-en-1-one derivatives as potent antitubercular agents” (Bioorg Med Chem Lett, 2010).

≈ marks a conversion by molar mass, not a printed value. A value given as a limit tells only on which side of the number the result lay.

The test system of data set [1] is Mycobacterium tuberculosis. Kind of data set: Antitubercular activity against Mycobacterium tuberculosis H37Rv by resazurin microtiter assay. It counts as functional.
Data set [2] can be described thus: Toxicity in African green monkey Vero cells. It counts as cell-based. The following applies: chlorocebus sabaeus.
Data set [3] in a line: Selectivity index, ratio of CC50 for African green monkey Vero cells to MIC for Mycobacterium tuberculosis H37Rv. It counts as functional.

Regarding `O=C(/C=C/c1ccc([N+](=O)[O-])o1)c1ccc(Br)cc1`, the minimal inhibitory concentration (MIC) (commonly the lowest concentration found to suppress growth) in data set [1] was 3.88 µM (≈ 1.25 µg/mL). The CC50 (in general, the concentration that lowers cell viability or growth by half) in data set [2] was determined as 354 µM.

In data set [1], `O=C(/C=C/c1ccc([N+](=O)[O-])o1)c1ccc(Cl)cc1` came in with a minimal inhibitory concentration (MIC) of 4.5 µM (≈ 1.25 µg/mL). For the same compound, in data set [2], the CC50 came to 558 µM.

As for `O=C(/C=C/c1ccc([N+](=O)[O-])o1)c1ccccc1`, the lowest concentration to inhibit growth in data set [1] (MIC) was 5.51 µM (≈ 1.34 µg/mL). The midpoint of cytotoxicity in data set [2], the CC50, lay at 444 µM.

Turning to `O=C(/C=C/c1ccc([N+](=O)[O-])o1)c1ccc(F)cc1`, the minimal inhibitory concentration (MIC) in data set [1] was 4.17 µM (≈ 1.09 µg/mL). In data set [2], this compound had a 50% cytotoxic concentration (CC50) of 463 µM.

Consider `O=C(/C=C/c1ccco1)c1ccc(F)cc1`, for which the MIC in data set [1] was > 93.9 µM. The same compound showed a CC50 in data set [2] of 661 µM.

Consider `Cc1ccc(C(=O)/C=C/c2ccc([N+](=O)[O-])o2)cc1`, for which 4.35 µM (≈ 1.12 µg/mL) was the least that counted as inhibitory in data set [1] (MIC). This compound had a cytotoxic concentration (CC50) in data set [2] of 439 µM.

Take `COc1ccc(C(=O)/C=C/c2ccc([N+](=O)[O-])o2)cc1`: the minimum inhibitory concentration (MIC) in data set [1] was determined as 3.84 µM (≈ 1.05 µg/mL). The CC50 in data set [2] was 571 µM.

`O=C(/C=C/c1ccc([N+](=O)[O-])o1)c1ccc(Cl)cc1Cl` had a minimal inhibitory concentration (MIC) in data set [1] of 14.1 µM (≈ 4.41 µg/mL). Moreover, the half-maximal cytotoxic concentration (CC50) in data set [2] amounted to 417 µM.

Regarding `O=C(/C=C/c1ccc([N+](=O)[O-])o1)c1cccs1`, the minimal inhibitory concentration (MIC) in data set [1] amounted to 5.86 µM (≈ 1.46 µg/mL). In data set [2], this compound came in with a half-maximal cytotoxic concentration (CC50) of 742 µM.

In the case of `O=C(/C=C/c1ccc([N+](=O)[O-])o1)c1ccco1`, the lowest concentration to inhibit growth in data set [1] (MIC) was 8.28 µM (≈ 1.93 µg/mL). The compound also gave a CC50 in data set [2] of 776 µM.

`O=C(/C=C/c1ccc([N+](=O)[O-])s1)c1ccc(N2CCCCC2)cc1` showed an MIC in data set [1] of 15.6 µM (≈ 5.35 µg/mL). The same compound gave a cytotoxic concentration (CC50) in data set [2] of 404 µM.

As for `COc1cc(C(=O)/C=C/c2ccc([N+](=O)[O-])o2)cc(OC)c1OC`, in data set [1], it took 6.06 µM (≈ 2.02 µg/mL) to inhibit growth (MIC). In data set [2], this compound gave a CC50 of 384 µM.

`O=C(/C=C/c1ccc([N+](=O)[O-])o1)c1cc2ccccc2oc1=O`: inhibition of growth in data set [1] (MIC) required 29.9 µM (≈ 9.32 µg/mL). It took 360 µM to reach half-maximal cytotoxicity in data set [2] (CC50).

Consider `O=C(/C=C/c1ccc([N+](=O)[O-])o1)c1ccc(OCc2ccccc2)cc1`, for which, in data set [1], the lowest concentration to inhibit growth (MIC) was 3.29 µM (≈ 1.15 µg/mL). This compound gave a cytotoxic concentration (CC50) in data set [2] of 515 µM.

In the case of `O=C(/C=C/c1ccc([N+](=O)[O-])o1)c1ccc(OCc2ccc(F)cc2)cc1`, the lowest concentration to inhibit growth in data set [1] (MIC) was 19.8 µM (≈ 7.27 µg/mL). Moreover, the CC50 in data set [2] worked out at 430 µM.

In data set [1], `COc1ccc(COc2ccc(C(=O)/C=C/c3ccc([N+](=O)[O-])o3)cc2)cc1` yielded an MIC of 1.85 µM (≈ 0.702 µg/mL). The same compound displayed a CC50 in data set [2] of 311 µM.

Consider `O=C(/C=C/c1ccc([N+](=O)[O-])o1)c1ccc(OCc2ccc(Cl)cc2Cl)cc1`, for which the MIC in data set [1] was > 46.6 µM. In data set [2], the 50% cytotoxic concentration (CC50) was determined as 340 µM.

For the compound `O=C(/C=C/c1ccc([N+](=O)[O-])o1)c1ccc(OCc2cccc(Cl)c2)cc1`, in data set [1], 6.1 µM (≈ 2.34 µg/mL) was the least that counted as inhibitory (MIC). In data set [2], this compound came in with a CC50 of 307 µM.

In the case of `O=C(/C=C/c1ccc([N+](=O)[O-])o1)c1ccc(OCc2ccc(OC(F)(F)F)cc2)cc1`, the minimum inhibitory concentration (MIC) in data set [1] stood at 1.66 µM (≈ 0.719 µg/mL). In data set [2], this compound registered a CC50 of 335 µM.

`C=C(C)COc1ccc(C(=O)/C=C/c2ccc([N+](=O)[O-])o2)cc1`: the MIC in data set [1] amounted to 5.59 µM (≈ 1.75 µg/mL). Further, the half-maximal cytotoxic concentration (CC50) in data set [2] came to 393 µM.

On to `O=C(/C=C/c1ccc([N+](=O)[O-])o1)c1ccc(N2CCN(Cc3ccccc3)CC2)cc1`, for which the minimal inhibitory concentration (MIC) in data set [1] is > 31.7 µM. The compound also displayed a CC50 in data set [2] of 299 µM.

With `O=C(/C=C/c1ccc([N+](=O)[O-])o1)c1ccc(N2CCN(C/C=C/c3ccccc3)CC2)cc1`, the MIC in data set [1] is > 32.7 µM. In data set [2], this compound displayed a 50% cytotoxic concentration (CC50) of 343 µM.

As for `CCN(CC)c1ccc(C(=O)/C=C/c2ccc([N+](=O)[O-])o2)cc1`, the lowest concentration to inhibit growth in data set [1] (MIC) was 0.48 µM (≈ 0.151 µg/mL). This compound gave a 50% cytotoxic concentration (CC50) in data set [2] of 334 µM.

In data set [1], `O=C(/C=C/c1ccc([N+](=O)[O-])o1)c1ccc(N2CCCCC2)cc1` came in with an MIC of 0.19 µM (≈ 0.062 µg/mL). The same compound gave a half-maximal cytotoxic concentration (CC50) in data set [2] of 349 µM. Also, the “Selectivity Index” value in data set [3] was >1800.

For `O=C(/C=C/c1ccc([N+](=O)[O-])o1)c1ccc(N2CCOCC2)cc1`, the MIC in data set [1] came out at 0.38 µM (≈ 0.125 µg/mL). In data set [2], this compound gave a CC50 of 387 µM.

In data set [1], `NNC(=O)c1ccncc1` [ISONIAZID] yielded an MIC of 1.8 µM (≈ 0.247 µg/mL). The 50% cytotoxic concentration (CC50) in data set [2] was > 500 µM.
